Data taken from the NIST ThermoML archive (doi:10.1021/je800282a).
Numbers after ± are expanded uncertainties.

How the values were obtained:
[1] = refractive index (Na D-line) (dimensionless); details: 101.33 kPa, Liquid
[2] = for viscosity: 101.33 kPa, Liquid
[3] = wn = mass fraction of the nth substance listed; details: for viscosity: 101 kPa, Liquid
[4] = refractive index (Na D-line) (dimensionless); wn = mass fraction of the nth substance listed; details: 101 kPa, Liquid

CN(CCO)CCO [N-methyldiethanolamine]
Details | refractive index, [1] | surface tension liquid-gas, [2] [mN/m] | viscosity, [2] [mPa·s]
298.15 K | – | – | 77.85 ± 4.8
303.15 K | 1.46532 ± 0.0012 | 38.74 ± 1.1 | –
308.15 K | – | – | 43.9 ± 1.4
313.15 K | 1.46074 ± 0.0012 | 37.48 ± 1 | –
318.15 K | 1.45892 ± 0.0012 | – | 27.44 ± 0.92
323.15 K | 1.45708 ± 0.0012 | 36.82 ± 1 | –
328.15 K | – | – | 17.89 ± 0.62
333.15 K | 1.45287 ± 0.0012 | 35.31 ± 0.98 | –
338.15 K | – | – | 12.34 ± 0.45

CN(CCO)CCO [N-methyldiethanolamine] + O
Details | refractive index | surface tension liquid-gas [mN/m] | viscosity [mPa·s]
[3], 298.15 K, w1 = 0.3228 | – | – | 3.48 ± 0.17
[3], 298.15 K, w1 = 0.488 | – | – | 9.25 ± 0.35
[3], 303.15 K, w1 = 0.3288 | – | 53.16 ± 1.4 | –
[3], 303.15 K, w1 = 0.488 | – | 47.56 ± 1.3 | –
[3], 308.15 K, w1 = 0.3228 | – | – | 2.26 ± 0.13
[3], 308.15 K, w1 = 0.488 | – | – | 6.14 ± 0.25
[3], 313.15 K, w1 = 0.3288 | – | 52.38 ± 1.4 | –
[3], 313.15 K, w1 = 0.488 | – | 46.92 ± 1.3 | –
[3], 318.15 K, w1 = 0.3228 | – | – | 1.82 ± 0.12
[3], 318.15 K, w1 = 0.488 | – | – | 4.37 ± 0.2
[3], 323.15 K, w1 = 0.3288 | – | 51.42 ± 1.4 | –
[3], 323.15 K, w1 = 0.488 | – | 45.58 ± 1.2 | –
[3], 328.15 K, w1 = 0.3228 | – | – | 1.34 ± 0.11
[3], 328.15 K, w1 = 0.488 | – | – | 3.46 ± 0.17
[3], 333.15 K, w1 = 0.3288 | – | 50.67 ± 1.4 | –
[3], 333.15 K, w1 = 0.488 | – | 44.83 ± 1.2 | –
[3], 338.15 K, w1 = 0.3228 | – | – | 1.17 ± 0.1
[3], 338.15 K, w1 = 0.488 | – | – | 2.81 ± 0.15
[4], 303.15 K, w1 = 0.3228 | 1.37748 ± 0.0013 | – | –
[4], 303.15 K, w1 = 0.488 | 1.40298 ± 0.0013 | – | –
[4], 313.15 K, w1 = 0.3228 | 1.37604 ± 0.0013 | – | –
[4], 313.15 K, w1 = 0.488 | 1.39971 ± 0.0013 | – | –
[4], 318.15 K, w1 = 0.3228 | 1.37467 ± 0.0013 | – | –
[4], 318.15 K, w1 = 0.488 | 1.39629 ± 0.0013 | – | –
[4], 323.15 K, w1 = 0.3228 | 1.37305 ± 0.0013 | – | –
[4], 323.15 K, w1 = 0.488 | 1.39254 ± 0.0013 | – | –
[4], 333.15 K, w1 = 0.3228 | 1.37134 ± 0.0013 | – | –
[4], 333.15 K, w1 = 0.488 | 1.38821 ± 0.0013 | – | –
